Results taken from BindingDB's records for patent US10322118 (Dartmouth College, 2019).

Key:
Putative hydrolase = biological target: T1, Putative hydrolase (Pseudomonas aeruginosa (strain UCBPP-PA14), UniProt A0A0H2ZD27); test: Biochemical Characterization of Cif Inhibitors
T1 sequence (A0A0H2ZD27 whole entry): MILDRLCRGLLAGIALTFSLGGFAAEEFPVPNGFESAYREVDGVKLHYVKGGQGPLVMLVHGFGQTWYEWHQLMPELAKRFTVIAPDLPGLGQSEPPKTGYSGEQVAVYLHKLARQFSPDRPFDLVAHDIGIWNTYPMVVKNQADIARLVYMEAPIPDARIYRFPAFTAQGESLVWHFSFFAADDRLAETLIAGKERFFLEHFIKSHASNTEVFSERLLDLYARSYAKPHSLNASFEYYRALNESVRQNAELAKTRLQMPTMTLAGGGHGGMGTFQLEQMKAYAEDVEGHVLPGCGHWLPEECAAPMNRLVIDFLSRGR

[1] = biological target: T2, Bifunctional epoxide hydrolase 2 (Homo sapiens, UniProt P34913); test: Biochemical Characterization of Cif Inhibitors
T2 sequence (P34913 whole entry): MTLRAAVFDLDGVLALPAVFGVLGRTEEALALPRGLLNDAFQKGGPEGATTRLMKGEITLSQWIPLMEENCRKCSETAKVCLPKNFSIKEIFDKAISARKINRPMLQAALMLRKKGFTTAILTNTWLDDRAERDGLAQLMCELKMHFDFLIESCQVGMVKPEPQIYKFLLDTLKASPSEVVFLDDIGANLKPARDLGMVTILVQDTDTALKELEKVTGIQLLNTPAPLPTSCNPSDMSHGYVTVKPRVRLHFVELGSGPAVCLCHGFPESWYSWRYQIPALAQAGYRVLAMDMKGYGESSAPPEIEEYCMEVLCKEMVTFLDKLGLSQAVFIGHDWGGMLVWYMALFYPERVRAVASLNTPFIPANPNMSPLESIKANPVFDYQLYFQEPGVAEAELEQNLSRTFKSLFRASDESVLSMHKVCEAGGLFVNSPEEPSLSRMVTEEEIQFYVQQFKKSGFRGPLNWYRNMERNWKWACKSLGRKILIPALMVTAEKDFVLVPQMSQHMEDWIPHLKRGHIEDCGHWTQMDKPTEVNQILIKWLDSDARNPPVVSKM

Row | Compound | IC50 (Putative hydrolase) | IC50 [1]
1 | O=C(O)Cc1cc(I)c(Oc2ccc(O)cc2)c(I)c1 [US10322118, Entry 3] | 100 µM | 
2 | CCC(=O)Oc1ccc(NC(=O)NC23CC4CC(CC(C4)C2)C3)cc1 [US10322118, Urea-Based Scaffold Entry 1] | > 100 µM | 0.0038 µM
3 | O=C(NC(=O)c1c(F)cccc1F)Nc1cc(Cl)cc(Cl)c1 [US10322118, Urea-Based Scaffold Entry 4] | 1.5 µM | 
4 | O=C(O)c1ccc(Oc2ccccc2)cc1 [US10322118, Entry 11] | > 100 µM | 
5 | Oc1ccc(Oc2ccccc2)cc1 [US10322118, Entry 9] | > 100 µM | 
6 | O=C(O)Cc1cc(I)c(Oc2cc(I)c(O)c(I)c2)c(I)c1 [US10322118, Entry 1] | 20 µM | 
7 | Cc1cc(OCC(=O)O)cc(C)c1Cc1ccc(O)c(C(C)C)c1 [US10322118, Entry 7] | > 100 µM | 
8 | CCCCCCCCCCCCS(C)(=O)=O [US10322118, Urea-Based Scaffold Entry 8] |  | 33.3 µM
9 | CN(C(=O)NC(=O)c1c(F)cccc1F)c1ccc(Cl)cc1 [US10322118, Urea-Based Scaffold Entry 7] | > 100 µM | 
10 | Cc1ccc(-c2cc(C(F)(F)F)nn2-c2ccc(S(N)(=O)=O)cc2)cc1 [US10322118, Urea-Based Scaffold Entry 9] | 7.4 µM | 
11 | Nc1ccc(Oc2ccccc2)cc1 [US10322118, Entry 10] | > 100 µM | 
12 | Cc1cc(C)cc(NC(=O)NC(=O)c2c(F)cccc2F)c1 [US10322118, Urea-Based Scaffold Entry 3] | 1.8 µM | 
